Measured values taken from patent US6992079B2, “Substituted 11-phenyl-dibenzazepine compounds useful for the treatment or prevention of diseases characterized by abnormal cell proliferation” (President Fellows of Harvard College, priority 1997, dated 2006).
Where two headings read alike, the source gives them in different places.

Tests used:
[1] = test system: MC-F7; assay: In-Vitro Testing SRB panel: Breast Cancer; type: cell-based
[2] = test system: SK-MEL-2B; assay: In-Vitro Testing SRB panel: Melanoma; type: cell-based
[3] = test system: CARI-1; assay: In-Vitro Testing SRB panel: Renal Cancer; type: cell-based
[4] = test system: NCI-H460; type: cell-based
[5] = test system: MDA-N; assay: In-Vitro Testing SRB panel: Breast Cancer; type: cell-based
[6] = In-Vitro Testing SRB panel: Renal Cancer; type: cell-based
[7] = test system: SR; assay: In-Vitro Testing SRB panel: Leukemia; type: cell-based
[8] = test system: CCRF-CEM; assay: In-Vitro Testing SRB panel: Leukemia; type: cell-based
[9] = test system: A549/ATCC; type: cell-based
[10] = test system: UACC-62; assay: In-Vitro Testing SRB panel: Melanoma; type: cell-based
[11] = test system: MOLT-4; assay: In-Vitro Testing SRB panel: Leukemia; type: cell-based
[12] = test system: SK-MEL-2; assay: In-Vitro Testing SRB panel: Melanoma; type: cell-based
[13] = test system: SW-620; assay: In-Vitro Testing SRB panel: Colon Cancer; type: cell-based
[14] = test system: BT-549; assay: In-Vitro Testing SRB panel: Breast Cancer; type: cell-based
[15] = test system: OVCAR-8; assay: In-Vitro Testing SRB panel: Ovarian Cancer; type: cell-based
[16] = test system: SK-OV-3; assay: In-Vitro Testing SRB panel: Ovarian Cancer; type: cell-based
[17] = test system: HCT-15; assay: In-Vitro Testing SRB panel: Colon Cancer; type: cell-based
[18] = test system: panel of human cancer cells; assay: In vitro screening, SRB, panel of 60 human cancer cell lines; type: cell-based
[19] = test system: SU.86.86 pancreatic adenocarcinoma; assay: Mouse xenograft tumor growth; type: in vivo, nude mice; conditions: SU.86.86 pancreatic adenocarcinoma mouse xenograft
[20] = Homo sapiens, read-out: LC50 (the source's name)

Compound: COc1ccc2c(c1)CN(C(=O)c1ccc([N+](=O)[O-])cc1)c1ccc(Cl)cc1C2c1ccccc1Cl (centres unmarked) [Compound 30]
- GI50 ([1]; Homo sapiens, MCF7): 5.38 µM
- CC50 ([1]; Homo sapiens, MCF7, MC-F7, read-out: LC50 (the source's name)): > 100 µM
- TGI ([1]; MC-F7): >1.00E−04 Molar
- Percent Growth ([1]; MC-F7, Log10 concentration −4.0 Molar): 33%
- Percent Growth ([1]; MC-F7, Log10 concentration −5.0 Molar): 36%
- Percent Growth ([1]; MC-F7, Log10 concentration −6.0 Molar): 88%
- Percent Growth ([1]; MC-F7, Log10 concentration −7.0 Molar): 106%
- Percent Growth ([1]; MC-F7, Log10 concentration −8.0 Molar): 102%
- GI50 ([2]; Homo sapiens, SK-MEL-28): > 100 µM
- CC50 ([2]; Homo sapiens, SK-MEL-28, read-out: LC50 (the source's name)): > 100 µM
- TGI ([2]; SK-MEL-28): >1.00E−04 Molar
- Percent Growth ([2]; SK-MEL-28, Log10 concentration −4.0 Molar): 65%
- Percent Growth ([2]; SK-MEL-28, Log10 concentration −5.0 Molar): 70%
- Percent Growth ([2]; SK-MEL-28, Log10 concentration −6.0 Molar): 86%
- Percent Growth ([2]; SK-MEL-28, Log10 concentration −7.0 Molar): 100%
- Percent Growth ([2]; SK-MEL-28, Log10 concentration −8.0 Molar): 101%
- TGI ([3]; CARI-1): >1.00E−04 Molar
- Percent Growth ([3]; CARI-1, Log10 concentration −4.0 Molar): 59%
- Percent Growth ([3]; CARI-1, Log10 concentration −5.0 Molar): 68%
- Percent Growth ([3]; CARI-1, Log10 concentration −6.0 Molar): 71%
- Percent Growth ([3]; CARI-1, Log10 concentration −7.0 Molar): 108%
- Percent Growth ([3]; CARI-1, Log10 concentration −8.0 Molar): 141%
- GI50 ([3]; Homo sapiens): > 100 µM
- CC50 ([3]; Homo sapiens, CARI-1, read-out: LC50 (the source's name)): > 100 µM
- GI50 ([4]; Homo sapiens, NCI-H460): 2.12 µM
- CC50 ([4]; Homo sapiens, NCI-H460, read-out: LC50 (the source's name)): > 100 µM
- TGI ([4]; NCI-H460): >1.00E−04 Molar
- Percent Growth ([4]; NCI-H460, Log10 concentration −4.0 Molar): 20%
- Percent Growth ([4]; NCI-H460, Log10 concentration −5.0 Molar): 16%
- Percent Growth ([4]; NCI-H460, Log10 concentration −6.0 Molar): 67%
- Percent Growth ([4]; NCI-H460, Log10 concentration −7.0 Molar): 97%
- Percent Growth ([4]; NCI-H460, Log10 concentration −8.0 Molar): 91%
- TGI [5]: >1.00E−04 Molar
- CC50 [5, 20]: > 100 µM
- Percent Growth ([5]; Log10 concentration −4.0 Molar): 51%
- Percent Growth ([5]; Log10 concentration −5.0 Molar): 39%
- Percent Growth ([5]; Log10 concentration −6.0 Molar): 83%
- Percent Growth ([5]; Log10 concentration −7.0 Molar): 93%
- Percent Growth ([5]; Log10 concentration −8.0 Molar): 101%
- GI50 ([6]; Homo sapiens): 7.81 µM
- CC50 ([6]; Homo sapiens, OO-31, read-out: LC50 (the source's name)): > 100 µM
- TGI ([6]; OO-31): >1.00E−04 Molar
- Percent Growth ([6]; OO-31, Log10 concentration −4.0 Molar): 43%
- Percent Growth ([6]; OO-31, Log10 concentration −5.0 Molar): 43%
- Percent Growth ([6]; OO-31, Log10 concentration −6.0 Molar): 107%
- Percent Growth ([6]; OO-31, Log10 concentration −7.0 Molar): 94%
- Percent Growth ([6]; OO-31, Log10 concentration −8.0 Molar): 98%
- TGI [7]: >1.00E−04 Molar
- GI50 ([7]; Homo sapiens): 0.455 µM
- CC50 [7, 20]: > 100 µM
- Percent Growth ([7]; Log10 concentration −4.0 Molar): 23%
- Percent Growth ([7]; Log10 concentration −5.0 Molar): 12%
- Percent Growth ([7]; Log10 concentration −6.0 Molar): 32%
- Percent Growth ([7]; Log10 concentration −7.0 Molar): 85%
- Percent Growth ([7]; Log10 concentration −8.0 Molar): 77%
- TGI [8]: >1.00E−04 Molar
- GI50 ([8]; Homo sapiens): 1.85 µM
- CC50 [8, 20]: > 100 µM
- Percent Growth ([8]; Log10 concentration −4.0 Molar): 39%
- Percent Growth ([8]; Log10 concentration −5.0 Molar): 22%
- Percent Growth ([8]; Log10 concentration −6.0 Molar): 60%
- Percent Growth ([8]; Log10 concentration −7.0 Molar): 70%
- Percent Growth ([8]; Log10 concentration −8.0 Molar): 73%
- TGI ([9]; A549/ATCC): >1.00E−04 Molar
- Percent Growth ([9]; A549/ATCC, Log10 concentration −4.0 Molar): 23%
- Percent Growth ([9]; A549/ATCC, Log10 concentration −5.0 Molar): 25%
- Percent Growth ([9]; A549/ATCC, Log10 concentration −6.0 Molar): 81%
- Percent Growth ([9]; A549/ATCC, Log10 concentration −7.0 Molar): 96%
- Percent Growth ([9]; A549/ATCC, Log10 concentration −8.0 Molar): 96%
- GI50 ([9]; Homo sapiens, A549): 3.57 µM
- CC50 ([9]; Homo sapiens, A549/ATCC, read-out: LC50 (the source's name)): > 100 µM
- GI50 ([10]; Homo sapiens, UACC-62): > 100 µM
- CC50 ([10]; Homo sapiens, UACC-62, read-out: LC50 (the source's name)): > 100 µM
- TGI ([10]; UACC-62): >1.00E−04 Molar
- Percent Growth ([10]; UACC-62, Log10 concentration −4.0 Molar): 56%
- Percent Growth ([10]; UACC-62, Log10 concentration −5.0 Molar): 52%
- Percent Growth ([10]; UACC-62, Log10 concentration −6.0 Molar): 58%
- Percent Growth ([10]; UACC-62, Log10 concentration −7.0 Molar): 93%
- Percent Growth ([10]; UACC-62, Log10 concentration −8.0 Molar): 97%
- GI50 ([11]; Homo sapiens, MOLT-4): 1.33 µM
- CC50 ([11]; Homo sapiens, MOLT-4, read-out: LC50 (the source's name)): > 100 µM
- TGI ([11]; MOLT-4): >1.00E−04 Molar
- Percent Growth ([11]; MOLT-4, Log10 concentration −4.0 Molar): 13%
- Percent Growth ([11]; MOLT-4, Log10 concentration −5.0 Molar): 23%
- Percent Growth ([11]; MOLT-4, Log10 concentration −6.0 Molar): 54%
- Percent Growth ([11]; MOLT-4, Log10 concentration −7.0 Molar): 89%
- Percent Growth ([11]; MOLT-4, Log10 concentration −8.0 Molar): 103%
- GI50 ([12]; Homo sapiens, SK-MEL-2): > 100 µM
- CC50 ([12]; Homo sapiens, SK-MEL-2, read-out: LC50 (the source's name)): > 100 µM
- TGI ([12]; SK-MEL-2): >1.00E−04 Molar
- Percent Growth ([12]; SK-MEL-2, Log10 concentration −4.0 Molar): 71%
- Percent Growth ([12]; SK-MEL-2, Log10 concentration −5.0 Molar): 74%
- Percent Growth ([12]; SK-MEL-2, Log10 concentration −6.0 Molar): 95%
- Percent Growth ([12]; SK-MEL-2, Log10 concentration −7.0 Molar): 94%
- Percent Growth ([12]; SK-MEL-2, Log10 concentration −8.0 Molar): 102%
- GI50 ([13]; Homo sapiens, SW-620): > 100 µM
- CC50 ([13]; Homo sapiens, SW-620, read-out: LC50 (the source's name)): > 100 µM
- TGI ([13]; SW-620): >1.00E−04 Molar
- Percent Growth ([13]; SW-620, Log10 concentration −4.0 Molar): 56%
- Percent Growth ([13]; SW-620, Log10 concentration −5.0 Molar): 57%
- Percent Growth ([13]; SW-620, Log10 concentration −6.0 Molar): 87%
- Percent Growth ([13]; SW-620, Log10 concentration −7.0 Molar): 99%
- Percent Growth ([13]; SW-620, Log10 concentration −8.0 Molar): 102%
- TGI ([14]; BT-549): >1.00E−04 Molar
- Percent Growth ([14]; BT-549, Log10 concentration −4.0 Molar): 61%
- Percent Growth ([14]; BT-549, Log10 concentration −5.0 Molar): 75%
- Percent Growth ([14]; BT-549, Log10 concentration −6.0 Molar): 90%
- Percent Growth ([14]; BT-549, Log10 concentration −7.0 Molar): 99%
- Percent Growth ([14]; BT-549, Log10 concentration −8.0 Molar): 95%
- GI50 ([14]; Homo sapiens, BT-549): > 100 µM
- CC50 ([14]; Homo sapiens, BT-549, read-out: LC50 (the source's name)): > 100 µM
- GI50 ([15]; Homo sapiens, OVCAR-8): 7.72 µM
- CC50 ([15]; Homo sapiens, OVCAR-8, read-out: LC50 (the source's name)): > 100 µM
- TGI ([15]; OVCAR-8): >1.00E−04 Molar
- Percent Growth ([15]; OVCAR-8, Log10 concentration −4.0 Molar): 48%
- Percent Growth ([15]; OVCAR-8, Log10 concentration −5.0 Molar): 46%
- Percent Growth ([15]; OVCAR-8, Log10 concentration −6.0 Molar): 84%
- Percent Growth ([15]; OVCAR-8, Log10 concentration −7.0 Molar): 95%
- Percent Growth ([15]; OVCAR-8, Log10 concentration −8.0 Molar): 96%
- GI50 ([16]; Homo sapiens, SK-OV-3): > 100 µM
- CC50 ([16]; Homo sapiens, SK-OV-3, read-out: LC50 (the source's name)): > 100 µM
- TGI ([16]; SK-OV-3): >1.00E−04 Molar
- Percent Growth ([16]; SK-OV-3, Log10 concentration −4.0 Molar): 66%
- Percent Growth ([16]; SK-OV-3, Log10 concentration −5.0 Molar): 76%
- Percent Growth ([16]; SK-OV-3, Log10 concentration −6.0 Molar): 88%
- Percent Growth ([16]; SK-OV-3, Log10 concentration −7.0 Molar): 95%
- Percent Growth ([16]; SK-OV-3, Log10 concentration −8.0 Molar): 93%
- TGI ([17]; HCT-15): >1.00E−04 Molar
- Percent Growth ([17]; HCT-15, Log10 concentration −4.0 Molar): 39%
- Percent Growth ([17]; HCT-15, Log10 concentration −5.0 Molar): 40%
- Percent Growth ([17]; HCT-15, Log10 concentration −6.0 Molar): 77%
- Percent Growth ([17]; HCT-15, Log10 concentration −7.0 Molar): 98%
- Percent Growth ([17]; HCT-15, Log10 concentration −8.0 Molar): 109%
- GI50 ([17]; Homo sapiens, HCT-15): 5.28 µM
- CC50 ([17]; Homo sapiens, HCT-15, read-out: LC50 (the source's name)): > 100 µM
- activity against the human cell panel [18]: exhibited activity against the human cell panel
- tumor growth [19]: showed inhibition of tumor growth
